One experiment deals with cancer cell. In words: Cell viability assay (resazurin). Type of experiment: cell-based. The conditions noted are these: 72 h; 3 days with compound, resazurin fluorescence; cell line not named. An outline of the steps:
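Cells in DMEM GlutaMAX or line-appropriate medium are exposed to compound for 3 days at 37 °C, 5% CO2. Viability is read as resazurin fluorescence (Ex544/Em590) after 2 h incubation. In the 384-well format, cells are seeded onto 11 pre-dispensed concentrations (final DMSO <1%) and read after 3 h resazurin.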
In general terms: Resazurin is reduced to fluorescent resorufin, in cell work by metabolically active cells.

Another experiment addresses MTH1 (Homo sapiens, UniProt P36639). In words: MTH1 enzymatic assay and IC50 value determination (malachite green, 96- and 384-well format). Type of experiment: biochemical. The conditions noted are these: hydrolysis of dGTP (100 μM), MTH1 6 nM, pyrophosphatase-coupled malachite green, 15 minutes at 22° C. In a few lines:
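MTH1 (6 nM) hydrolysed dGTP (100 μM) for 15 min at 22 °C in Tris-acetate buffer with Mg2+, DTT, Tween 20 and excess pyrophosphatase, 1% DMSO. Pi detected with malachite green at 630 nm. IC50 from nonlinear 4-parameter fit of 11–12-point dilution series.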

A value given as a limit tells only on which side of the number the result lay.

For orientation: IC50 means the concentration that gives 50% inhibition.

On to `Cc1c(Cl)cccc1-c1cc(NCCCNc2nccc(C(N)=O)n2)nc(N)n1` [Example 168, 2-[3-[[2-amino-6-(3-chloro-2-methyl-phenyl)pyrimidin-4-yl]amino]propylamino]pyrimidine-4-carboxamide], for which the figures for the IC50 in the experiment with cancer cell and against MTH1 were less than 500 nM and less than 200 nM, respectively.

On to `Cc1c(Cl)cccc1-c1cc(NCCc2ccc(S(=O)(=O)C(C)C)cc2)nc(N)n1` [Example 169, 6-(3-chloro-2-methyl-phenyl)-N4-[2-(4-isopropylsulfonylphenyl)ethyl]pyrimidine-2,4-diamine], for which the half-inhibitory concentration (IC50) with cancer cell is less than 500 nM; against MTH1, less than 200 nM.

With `Cc1c(Cl)cccc1-c1cc(NCCc2cccc(S(=O)(=O)C(C)C)c2)nc(N)n1` [Example 170], the results for the concentration for half-maximal inhibition (IC50) with cancer cell and against MTH1 were less than 500 nM and less than 200 nM, respectively.

As to `Cc1c(Cl)cccc1-c1cc(NCCc2ccc(C(N)=O)c(F)c2)nc(N)n1` [Example 171, 4-[2-[[2-amino-6-(3-chloro-2-methyl-phenyl)pyrimidin-4-yl]amino]ethyl]-2-fluoro-benzamide], the IC50 in the experiment with cancer cell was less than 500 nM; on MTH1, less than 200 nM.

For the compound `Cc1c(Cl)cccc1-c1cc(NCCc2ccc(S(C)(=O)=O)c(F)c2)nc(N)n1` [Example 172, 6-(3-chloro-2-methyl-phenyl)-N4-[2-(3-fluoro-4-methylsulfonyl-phenyl)ethyl]pyrimidine-2,4-diamine], the values for the IC50 in the experiment on cancer cell and on MTH1 were less than 500 nM and less than 200 nM, respectively.

As for `Cc1c(Cl)cccc1-c1cc(NCCc2ccc(O)c(C(N)=O)c2)nc(N)n1` [Example 173, 5-[2-[[2-amino-6-(3-chloro-2-methyl-phenyl)pyrimidin-4-yl]amino]ethyl]-2-hydroxy-benzamide], the figures for the half-maximal inhibitory concentration (IC50) with cancer cell and on MTH1 were less than 500 nM and less than 200 nM, respectively.

As for `Cc1c(Cl)cccc1-c1cc(NCCSc2nccc(C(N)=O)n2)nc(N)n1` [Example 174, 2-[2-[[2-amino-6-(3-chloro-2-methyl-phenyl)pyrimidin-4-yl]amino]ethylsulfanyl]pyrimidine-4-carboxamide], the IC50 in the experiment with cancer cell was less than 500 nM; on MTH1 it was less than 200 nM.

As to `Cc1c(Cl)cccc1-c1cc(NCCSCc2ccc(S(C)(=O)=O)cc2)nc(N)n1` [Example 176, 6-(3-chloro-2-methyl-phenyl)-N4-[2-[(4-methylsulfonylphenyl)methylsulfanyl]ethyl]pyrimidine-2,4-diamine], the IC50 in the experiment on cancer cell is less than 500 nM; against MTH1 it was less than 200 nM.

On to `Cc1c(Cl)cccc1-c1cc(NCCc2ccc(C(=O)OC(C)C)cc2)nc(N)n1` [Example 178, Isopropyl 4-[2-[[2-amino-6-(3-chloro-2-methyl-phenyl)pyrimidin-4-yl]amino]ethyl]benzoate], for which the IC50 is less than 500 nM with cancer cell and less than 200 nM at MTH1.

Regarding `Cc1c(Cl)cccc1-c1cc(NCCSc2ccc(S(N)(=O)=O)cn2)nc(N)n1` [Example 180, 6-[2-[[2-amino-6-(3-chloro-2-methyl-phenyl)pyrimidin-4-yl]amino]ethylsulfanyl]pyridine-3-sulfonamide], the half-inhibitory concentration (IC50) was less than 500 nM in the experiment on cancer cell and less than 200 nM against MTH1.

`COC(=O)c1ccc(CSCCNc2cc(-c3cccc(Cl)c3C)nc(N)n2)cc1` [Example 181, methyl 4-[2-[[2-amino-6-(3-chloro-2-methyl-phenyl)pyrimidin-4-yl]amino]ethylsulfanylmethyl]benzoate]: the concentration for half-maximal inhibition (IC50) was less than 500 nM in the experiment with cancer cell and less than 200 nM on MTH1.

As to `COC(=O)c1ccc(CCNc2cc(-c3cccc(Cl)c3C)nc(N)n2)cc1` [Example 182, methyl 4-[2-[[2-amino-6-(3-chloro-2-methyl-phenyl)pyrimidin-4-yl]amino]ethyl]benzoate], the IC50 is less than 500 nM in the experiment with cancer cell and less than 200 nM on MTH1.

On to `CCOC(=O)c1ccc(CCNc2cc(-c3cccc(Cl)c3C)nc(N)n2)cc1` [Example 183, ethyl 4-[2-[[2-amino-6-(3-chloro-2-methyl-phenyl)pyrimidin-4-yl]amino]ethyl]benzoate], for which the figures for the IC50 in the experiment with cancer cell and on MTH1 were less than 500 nM and less than 200 nM, respectively.

`CCCOC(=O)c1ccc(CCNc2cc(-c3cccc(Cl)c3C)nc(N)n2)cc1` [Example 184, propyl 4-[2-[[2-amino-6-(3-chloro-2-methyl-phenyl)pyrimidin-4-yl]amino]ethyl]benzoate]: the figures for the IC50 in the experiment on cancer cell and against MTH1 were less than 500 nM and less than 200 nM, respectively.

Take `Cc1c(Cl)cccc1-c1cc(NCCc2ccc(C(=O)OCCO)cc2)nc(N)n1` [Example 185, 2-hydroxyethyl 4-[2-[[2-amino-6-(3-chloro-2-methyl-phenyl)pyrimidin-4-yl]amino]ethyl]benzoate]: the IC50 in the experiment with cancer cell was less than 500 nM; on MTH1 it was less than 200 nM.

For `Cc1c(Cl)cccc1-c1cc(NCCc2ccc(C(=O)OCCS(C)(=O)=O)cc2)nc(N)n1` [Example 186, 2-methylsulfonylethyl 4-[2-[[2-amino-6-(3-chloro-2-methyl-phenyl)pyrimidin-4-yl]amino]ethyl]benzoate], the IC50 in the experiment with cancer cell was less than 500 nM; on MTH1, less than 200 nM.

For the compound `Cc1c(Cl)cccc1-c1cc(NCCc2ccc(C(=O)OCC(O)CO)cc2)nc(N)n1` (centres unmarked) [Example 187, 2,3-dihydroxypropyl 4-[2-[[2-amino-6-(3-chloro-2-methyl-phenyl)pyrimidin-4-yl]amino]ethyl]benzoate], the IC50 was less than 500 nM in the experiment with cancer cell and less than 200 nM at MTH1.

Regarding `Cc1c(Cl)cccc1-c1cc(NCCNc2ccc(S(C)(=O)=O)nc2)nc(N)n1` [Example 188, 6-(3-chloro-2-methyl-phenyl)-N4-[2-[(6-methylsulfonyl-3-pyridyl)amino]ethyl]pyrimidine-2,4-diamine], the IC50 in the experiment on cancer cell was less than 500 nM; against MTH1 it was less than 200 nM.

Turning to `CC(=O)Nc1ccc(NCCNc2cc(-c3cccc(Cl)c3C)nc(N)n2)cc1C` [Example 189, N-[4-[2-[[2-amino-6-(3-chloro-2-methyl-phenyl)pyrimidin-4-yl]amino]ethylamino]-2-methyl-phenyl]acetamide], the IC50 with cancer cell is less than 500 nM; against MTH1, less than 200 nM.

Regarding `CCc1ccc(CCNc2cc(-c3cccc(Cl)c3C)nc(N)n2)cc1` [Example 191, 6-(3-chloro-2-methyl-phenyl)-N4-[2-(4-ethylphenyl)ethyl]pyrimidine-2,4-diamine], the half-inhibitory concentration (IC50) is less than 500 nM in the experiment with cancer cell and less than 200 nM at MTH1.

Consider `Cc1c(Cl)cccc1-c1cc(NCCc2ccc(C(=O)NC(C)CO)cc2)nc(N)n1` (centres unmarked) [Example 194, 4-(2-{[2-amino-6-(3-chloro-2-methylphenyl)pyrimidin-4-yl]amino}ethyl)-N-(1-hydroxypropan-2-yl)benzamide], for which the IC50 in the experiment on cancer cell was less than 500 nM; against MTH1 it was less than 200 nM.

With `Cc1c(Cl)cccc1-c1cc(NCCc2ccc(C(=O)N3CCN(C)CC3)cc2)nc(N)n1` [Example 195, 6-(3-chloro-2-methylphenyl)-4-N-{2-[4-(4-methylpiperazine-1-carbonyl)phenyl]ethyl}pyrimidine-2,4-diamine], the IC50 in the experiment on cancer cell was less than 500 nM; at MTH1, less than 200 nM.

In the case of `Cc1c(Cl)cccc1-c1cc(NCCc2ccc([S+](C)[O-])cc2)nc(N)n1` (centres unmarked) [Example 196, 6-(3-chloro-2-methylphenyl)-N4-[2-(4-methanesulfinylphenyl)ethyl]pyrimidine-2,4-diamine], the IC50 was less than 500 nM in the experiment on cancer cell and less than 200 nM against MTH1.

Regarding `Cc1c(-c2cc(NCCc3ccc(S(C)(=O)=O)cc3)nc(N)n2)cccc1C(F)(F)F` [Example 198, N4-[2-(4-methanesulfonylphenyl)ethyl]-6-[2-methyl-3-(trifluoromethyl)phenyl]pyrimidine-2,4-diamine], the figures for the IC50 with cancer cell and against MTH1 were less than 500 nM and less than 200 nM, respectively.

Consider `Cc1c(Cl)cccc1-c1cc(NCCOc2nccc3occc23)nc(N)n1` [Example 200, 6-(3-chloro-2-methylphenyl)-N4-(2-{furo[3,2-c]pyridin-4-yloxy}ethyl)pyrimidine-2,4-diamine], for which the IC50 is less than 500 nM in the experiment on cancer cell and less than 200 nM against MTH1.

Turning to `Cc1c(Cl)cccc1-c1cc(NCCOc2ccc(C(N)=O)cc2)nc(N)n1` [Example 201], the values for the IC50 with cancer cell and against MTH1 were less than 500 nM and less than 200 nM, respectively.

With `Cc1c(Cl)cccc1-c1cc(NCCOc2ccc(/C(N)=N/O)cc2)nc(N)n1` [Example 203, (Z)-4-(2-{[2-amino-6-(3-chloro-2-methylphenyl)pyrimidin-4-yl]amino}ethoxy)-N′-hydroxybenzene-1-carboximidamide], the IC50 in the experiment with cancer cell was less than 500 nM; against MTH1 it was less than 200 nM.

With `Cc1c(Cl)cccc1-c1cc(NCCCOc2ccc(S(C)(=O)=O)cc2)nc(N)n1` [Example 204, 6-(3-chloro-2-methylphenyl)-N4-[3-(4-methanesulfonylphenoxy)propyl]pyrimidine-2,4-diamine], the figures for the IC50 in the experiment with cancer cell and on MTH1 were less than 500 nM and less than 200 nM, respectively.

As for `Cc1c(Cl)cccc1-c1cc(NCCCOc2nccc(C(N)=O)n2)nc(N)n1` [Example 205, 2-(3-{[2-amino-6-(3-chloro-2-methylphenyl)pyrimidin-4-yl]amino}propoxy)pyrimidine-4-carboxamide], the results for the IC50 in the experiment on cancer cell and at MTH1 were less than 500 nM and less than 200 nM, respectively.

Take `Cc1c(Cl)cccc1-c1cc(NCCCOc2ccc(C(N)=O)cn2)nc(N)n1` [Example 206, 6-(3-{[2-amino-6-(3-chloro-2-methylphenyl)pyrimidin-4-yl]amino}propoxy)pyridine-3-carboxamide]: the IC50 in the experiment with cancer cell was less than 500 nM; at MTH1 it was less than 200 nM.

Turning to `Cc1c(Cl)cccc1-c1cc(NCCc2ccc(S(=O)(=O)N3CCOCC3)cc2)nc(N)n1` [Example 207, 6-(3-chloro-2-methylphenyl)-N4-{2-[4-(morpholine-4-sulfonyl)phenyl]ethyl}pyrimidine-2,4-diamine], the IC50 is less than 500 nM in the experiment with cancer cell and less than 200 nM at MTH1.

(Values after patent US10179790B2 (THOMAS HELLEDAYS STIFTELSE FOR MEDICINSK FORSKNING, priority 2014, dated 2019).)
